According to US20240368163A1, “COMPOUNDS AND METHODS FOR MODULATING SPLICING” (REMIX THERAPEUTICS INC., priority 2021, published 2024):
Like-named read-outs stand apart in the source and are kept apart here.

Experiments:
Type in all cases: cell-based, human
HTT [1] = experiment: Splicing RT-qPCR assay, HTT mRNA canonical junction (CJ) and alternative junction (AJ); details: Homo sapiens; for AC50: increase in AJ mRNA
Experimental: (§1) Compounds described herein were used to modulate RNA transcript abundance in cells. The expression of a target mRNA was measured by detecting the formation of an exon-exon junction in the canonical transcript (CJ). A compound mediated exon-inclusion event was detected by observing an increase in formation of a new junction with an alternative exon (AJ). Real-time qPCR assays were used to detect these splicing switches and interrogate the potency of various compounds towards different target genes. A high-throughput real time quantitative PCR (RT-qPCR) assay was developed to measure these two isoforms of the mRNA (CJ and AJ) for exemplary genes, such as HTT, SMN2, and MYB, together with a control housekeeping gene, GAPDH or GUSB or PPIA, used for normalization. Briefly, the A673 or K562 cell line was treated with various compounds described herein (e.g., compounds of Formula (I)). After treatment, the levels of the HTT, MYB, or SMN2 mRNA targets were determined from each sample of cell lysate by cDNA synthesis followed by qPCR.
(§2) The A673 cell line was cultured in DMEM with 10% FBS. Cells were diluted with full growth media and plated in a 96-well plate (15,000 cells in 100 ul media per well). The plate was incubated at 37° C. with 5% CO2 for 24 hours to allow cells to adhere. An 11-point 3-fold serial dilution of the compounds was made in DMSO then diluted in media in an intermediate plate. Compounds were transferred from the intermediate plate to the cell plate with the top dose at a final concentration of 10 uM in the well. Final DMSO concentration was kept at or below 0.25%. The cell plate was returned to the incubator at 37° C. with 5% CO2 for an additional 24 hours.
(§3) The K562 cell line was cultured in IMDM with 10% FBS. For K562, cells were diluted with full growth media and plated in either a 96-well plate (50,000 cells in 50 uL media per well) or a 384-well plate (8,000-40,000 cells in 45 uL media per well). An 11-point 3-fold serial dilution of the compounds were made in DMSO then diluted in media in an intermediate plate. Compound was transferred from the intermediate plate to the cell plate with the top dose at a final concentration of 10 uM in the well. Final DMSO concentration was kept at or below 0.25%. Final volume was 100 uL for 96-well plate and 50 uL for 384-well plate. The cell plate was then placed in an incubator at 37° C. with 5% CO2 for 24 hours.
(§4) The cells were then gently washed with 50 uL-100 uL cold PBS before proceeding to addition of lysis buffer. 30 uL-50 μL of room temperature lysis buffer with DNAse I (and optionally RNAsin) was added to each well. Cells were shaken/mixed thoroughly at room temperature for 5-10 minutes for lysis to take place and then 3 uL-5 μL of room temperature stop solution was added and wells were shaken/mixed again. After 2-5 minutes, the cell lysate plate was transferred to ice for RT-qPCR reaction setup. The lysates could also be frozen at −80° C. for later use.
(§5) In some cases, a direct lysis buffer was used. An appropriate volume of 3× lysis buffer (10 mM Tris, 150 mM NaCl, 1.5%-2.5% Igepal and 0.1-1 U/uL RNAsin, pH 7.4) was directly added to either K562 or A673 cells in media and mixed by pipetting 3 times. The plates were then incubated at room temperature with shaking/rocking for 20-50 minutes to allow for lysis to take place. After this time, the cell lysate plate was transferred to ice to set up for the RT-qPCR reactions. The lysates could also be frozen at −80° C. for later use.
(§6) To set up 10 uL RT-qPCR reactions, cell lysates were transferred to 384-well qPCR plates containing the master mix according to the table below. The plates were sealed, gently vortexed, and spun down before the run. The volumes were adjusted accordingly in some instances where the reaction was carried in 20 μL. The table below summarizes the components of the RT-qPCR reactions:
(§7) The RT-qPCR reaction was performed using a QuantStudio (ThermoFisher) under the following fast cycling conditions. […]

MYB [2] = experiment: Splicing RT-qPCR assay, MYB mRNA canonical junction (CJ) and alternative junction (AJ); details: Homo sapiens; for AC50: increase in AJ mRNA
Summary of the method: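 A673 or K562 cells were treated 24 h at 37 °C with an 11-point 3-fold dilution series (top 10 uM final, DMSO ≤0.25%). Lysates underwent one-step RT-qPCR for canonical (CJ) and alternative (AJ) junctions; Ct normalized to GAPDH, GUSB or PPIA and DMSO control via 2^(−ΔΔCt), expressed as percentage response.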

SMN2 = experiment: Splicing RT-qPCR panel, SMN2 canonical junction (CJ) mRNA; details: Homo sapiens, read-out: SMN2 IC50 (decrease in CJ mRNA levels)
Experimental: as §1, §2, §3, §4, §5, §6, §7

Target C [3] = experiment: Splicing RT-qPCR panel, Target C canonical junction (CJ) mRNA; details: Homo sapiens, read-out: Target C IC50 (decrease in CJ mRNA levels)
Experimental: as §1, §2, §3, §4, §5, §6, §7

MYB [4] = experiment: HiBiT protein abundance assay, MYB; details: Homo sapiens, modified K562 cells
Summary of the method: (§8)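 Tagged-target degradation assay: HiBiT-modified K562 cells treated 24 h with compound, 10 concentrations up to 10 μM final. Following lysis with LgBiT and substrate, luminescence gave normalized abundance; IC50 derived by logistic interpolation at 50%.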

HTT [5] = experiment: HiBiT protein abundance assay, HTT; details: Homo sapiens, modified K562 cells
Summary of the method: as §8

Target C [6] = experiment: HiBiT protein abundance assay, Target C; details: Homo sapiens, modified K562 cells
Summary of the method: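 Target tagged with HiBiT by knock-in; 24 h dosing, 10 μM top final in 3-fold steps. IC50 from 4PL fit of normalized luminescence.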

[7] = 24 h, decrease in CJ mRNA, A673 or K562 cells, 24 hours treatment, RT-qPCR, read-out: HTT CJ IC50
[8] = 24 h, A673 or K562 cells, 24 hours treatment, RT-qPCR
[9] = RT-qPCR panel, canonical junction mRNA, compound concentration having 50% response in CJ decrease, read-out: HTT IC50 (decrease in CJ mRNA levels)
[10] = 24 h, decrease in CJ mRNA, A673 or K562 cells, 24 hours treatment, RT-qPCR, read-out: MYB CJ IC50
[11] = RT-qPCR panel, canonical junction mRNA, compound concentration having 50% response in CJ decrease, read-out: MYB IC50 (decrease in CJ mRNA levels)
[12] = RT-qPCR panel, canonical junction mRNA, compound concentration having 50% response in CJ decrease
[13] = gene panel, CJ qPCR, protocol of Example 142, read-out: HTT IC50 (decrease in CJ mRNA levels)
[14] = gene panel, CJ qPCR, protocol of Example 142, read-out: MYB IC50 (decrease in CJ mRNA levels)
[15] = gene panel, CJ qPCR, protocol of Example 142

SMILES	IC50 (HTT [1]; [7])	AC50 (HTT [1]; [8])	IC50 (HTT [1]; [9])	IC50 (MYB [2]; [10])	AC50 (MYB [2]; [8])	IC50 (MYB [2]; [11])	IC50 (SMN2; [12])	IC50 (Target C [3]; [12])	IC50 (MYB [4]; K562, 24 h, Table 13A)	IC50 (HTT [5]; K562, 24 h, Table 13A)	IC50 (Target C [6]; K562, 24 h, Table 13A)	IC50 (HTT [1]; [13])	IC50 (MYB [2]; [14])	IC50 (SMN2; [15])	IC50 (Target C [3]; [15])	further results
CCN(c1ccc(-c2ccc(-c3cn[nH]c3)c3cn[nH]c23)nn1)C1CCNCC1 [Compound 274]	> 10000 nM	> 10000 nM	> 10000 nM	> 10000 nM	> 10000 nM	> 10000 nM	1000 to 10000 nM	> 10000 nM	1000 to 10000 nM	1000 to 10000 nM	1000 to 10000 nM					
CN(c1ccc(-c2ccc(-c3cn[nH]c3)c3ncsc23)nn1)[C@H]1C[C@H]2COC[C@@H](C1)N2 [Compound 355]	1000 to 10000 nM	1000 to 10000 nM	1000 to 10000 nM	1000 to 10000 nM	1000 to 10000 nM	1000 to 10000 nM	1000 to 10000 nM	1000 to 10000 nM	1000 to 10000 nM	1000 to 10000 nM	1000 to 10000 nM					
COc1nc(-c2ccc(N(C)[C@@H]3C[C@H]4CC[C@@H](C3)N4)nn2)ccc1-n1cccn1 [Compound 907]												100 to 1000 nM	1000 to 10000 nM	100 to 1000 nM	> 10000 nM	IC50 (MYB [4]; Table 13B, 24 hours): 1000 to 10000 nM; IC50 (HTT [5]; Table 13B, 24 hours): 100 to 1000 nM; IC50 (Target C [6]; Table 13B, 24 hours): 1000 to 10000 nM
c1nc2c(-c3cn[nH]c3)ccc(-c3ccc(N4CCC5(CCCNC5)C4)nn3)c2s1 (centres unmarked) [Compound 191]	> 10000 nM	> 10000 nM	> 10000 nM	> 10000 nM	> 10000 nM	> 10000 nM	1000 to 10000 nM	> 10000 nM	1000 to 10000 nM	1000 to 10000 nM	> 10000 nM					
CN(c1ccc(-c2ccc(-c3cnn(CC4CC4)n3)c3cn[nH]c23)nn1)[C@@H]1C[C@H]2CC[C@@H](C1)N2 [Compound 318, N-(6-{4-[2-(cyclopropylmethyl)-1,2,3-triazol-4-yl]-1H-indazol-7-yl}pyridazin-3-yl)-N-methyl-8-azabicyclo[3.2.1]octan-3-amine]	1000 to 10000 nM	1000 to 10000 nM	1000 to 10000 nM	1000 to 10000 nM	1000 to 10000 nM	1000 to 10000 nM	1000 to 10000 nM	1000 to 10000 nM	1000 to 10000 nM	1000 to 10000 nM	1000 to 10000 nM					
c1nc2c(-c3cn[nH]c3)ccc(-c3cnc(N[C@@H]4C[C@H]5CC[C@@H](C4)N5)nn3)c2s1 [Compound 422]		100 to 1000 nM	< 100 nM	100 to 1000 nM	1000 to 10000 nM	100 to 1000 nM	100 to 1000 nM	100 to 1000 nM	100 to 1000 nM	100 to 1000 nM	100 to 1000 nM					
CN(c1ncc(-c2ccc(-c3cn[nH]c3)c3ncsc23)nn1)C1C[C@H]2CCC[C@H](C1)N2 (some centres unmarked) [Compound 421]		< 100 nM	< 100 nM	100 to 1000 nM	100 to 1000 nM	100 to 1000 nM	< 100 nM	< 100 nM	100 to 1000 nM	< 100 nM	< 100 nM					
c1cnn(-c2ccc(-c3ccc(N4CCC(NC5CC5)C4)nn3)c3[nH]ncc23)c1 (centres unmarked) [Compound 347, N-cyclopropyl-1-{6-[4-(pyrazol-1-yl)-1H-indazol-7-yl]pyridazin-3-yl}pyrrolidin-3-amine]	> 10000 nM	> 10000 nM	> 10000 nM	> 10000 nM	> 10000 nM	> 10000 nM	1000 to 10000 nM	> 10000 nM	1000 to 10000 nM	1000 to 10000 nM	> 10000 nM					
[2H]C([2H])([2H])N(c1ccc(-c2ccc(-c3cn[nH]c3)c3ncsc23)nn1)C1CC(C)(C)NC(C)(C)C1 [Compound 231]	100 to 1000 nM	100 to 1000 nM	100 to 1000 nM	100 to 1000 nM	100 to 1000 nM	100 to 1000 nM	< 100 nM	100 to 1000 nM	100 to 1000 nM	< 100 nM	100 to 1000 nM					
COc1cc(-c2ccc(N(C)[C@@H]3C[C@H]4CC[C@@H](C3)N4)nn2)ccc1-c1cn[nH]c1 [Compound 914]												100 to 1000 nM	1000 to 10000 nM	< 100 nM	100 to 1000 nM	IC50 (MYB [4]; K562, 24 h, Table 13B): 1000 to 10000 nM; IC50 (HTT [5]; K562, 24 h, Table 13B): 1000 to 10000 nM; IC50 (Target C [6]; K562, 24 h, Table 13B): 100 to 1000 nM
COc1nc(-c2ccc(N(C)[C@@H]3C[C@H]4CC[C@@H](C3)N4)nn2)ccc1-c1cnc(C)cn1 [Compound 950]												100 to 1000 nM	100 to 1000 nM	< 100 nM	1000 to 10000 nM	IC50 (MYB [4]; K562, 24 h, Table 13B): 100 to 1000 nM; IC50 (HTT [5]; K562, 24 h, Table 13B): 100 to 1000 nM; IC50 (Target C [6]; K562, 24 h, Table 13B): 100 to 1000 nM
Cn1ncc(-c2ccc(-c3ccc(OC4CC(C)(C)NC(C)(C)C4)nn3)c3[nH]ncc23)n1 [Compound 316]	100 to 1000 nM	100 to 1000 nM	100 to 1000 nM	100 to 1000 nM	100 to 1000 nM	100 to 1000 nM	< 100 nM	1000 to 10000 nM	100 to 1000 nM	100 to 1000 nM	100 to 1000 nM					
COc1cc(-c2ccc(N3CCC(NC(C)(C)C)C3)nn2)ncc1-n1cccn1 (centres unmarked) [Compound 972]												100 to 1000 nM	1000 to 10000 nM	100 to 1000 nM	1000 to 10000 nM	IC50 (MYB [4]; K562, 24 h, Table 13B): 1000 to 10000 nM; IC50 (HTT [5]; K562, 24 h, Table 13B): 100 to 1000 nM; IC50 (Target C [6]; K562, 24 h, Table 13B): 1000 to 10000 nM
